IC50 data for 37 molecules are collected here from US9073882B2, “Inhibitors of the renal outer medullary potassium channel” (Merck Sharp & Dohme Corp., priority 2010, dated 2015).

The structures appear in SMILES notation.

hROMK1 (Kir1.1), sequence (P48048 whole entry): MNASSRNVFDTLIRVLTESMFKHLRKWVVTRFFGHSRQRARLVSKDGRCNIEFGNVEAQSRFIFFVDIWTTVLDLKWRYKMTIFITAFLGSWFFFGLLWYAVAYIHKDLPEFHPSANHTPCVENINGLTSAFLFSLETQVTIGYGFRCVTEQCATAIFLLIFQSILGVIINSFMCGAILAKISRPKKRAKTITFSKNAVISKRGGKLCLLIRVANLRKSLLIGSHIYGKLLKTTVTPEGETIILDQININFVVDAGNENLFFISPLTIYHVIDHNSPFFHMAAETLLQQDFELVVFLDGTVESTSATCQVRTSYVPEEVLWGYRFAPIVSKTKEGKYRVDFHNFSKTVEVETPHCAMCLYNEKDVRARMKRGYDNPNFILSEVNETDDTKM

One assay addresses hROMK1 (Kir1.1) (Homo sapiens (Human), UniProt P48048). Put plainly: ^86Rb^+ Efflux Assay. Conditions: CHO-DHFR- cells stably expressing hROMK1 (Kir1.1); value in parentheses at the end of each Example; read-out: IC50 in the ^86Rb^+ Efflux Assay. The format is cell-based.
`O=[N+]([O-])c1ccc(CCN2CCN(CCc3ccc([N+](=O)[O-])cn3)CC2)cc1` [Example 2, 1-[2-(4-Nitrophenyl)ethyl]-4-[2-(5-nitropyridin-2-yl)ethyl]piperazine]: the IC50 is 280 nM.

`N#Cc1ccc2c(c1)CCC(N1CCN(CCc3ccc([N+](=O)[O-])cc3)CC1)C2` (centres unmarked) [Example 3, 6-{4-[2-(4-Nitrophenyl)ethyl]piperazin-1yl}-5,6,7,8-tetrahydronaphthalene-2-carbonitrile]: the IC50 worked out at 50 nM.

For the molecule `O=[N+]([O-])c1ccc(CCN2CCN(CCc3ccc([N+](=O)[O-])cc3)C(CF)C2)cc1` (centres unmarked) [Example 5, 2-(Fluoromethyl)-1,4-bis[2-(4-nitrophenyl)ethyl]piperazine], the IC50 is 180 nM.

For `COC(=O)[C@H](Cc1ccc([N+](=O)[O-])cc1)N1CCN(CCc2ccc([N+](=O)[O-])cc2)CC1` [Example 8, Methyl(2S)-3-(4-nitrophenyl)-2-{4-[2-(4-nitrophenyl)ethyl]piperazin-1-yl}propanoate], the IC50 worked out at 510 nM.

In the case of `CC1(C)CN(CCc2ccc([N+](=O)[O-])cc2)CCN1CCc1ccc([N+](=O)[O-])cc1` [Example 9, 2,2-Dimethyl-1,4-bis[2-(4-nitrophenyl)ethyl]piperazine], the concentration for half-maximal inhibition (IC50) turned out to be 210 nM.

In the case of `O=[N+]([O-])c1ccc(CCN2C[C@@H]3C[C@H]2CN3CCc2ccc([N+](=O)[O-])cc2)cc1` [Example 10, (1S,4S)-2,5-Bis[2-(4-nitrophenyl)ethyl]-2,5-diazabicyclo[2.2.1]heptane], the IC50 stood at 110 nM.

Take `O=[N+]([O-])c1ccc(CCN2CCN(CCc3ccc([N+](=O)[O-])cc3)C(C3CC3)C2)cc1` (centres unmarked) [Example 11, 2-Cyclopropyl-1,4-bis[2-(4-nitrophenyl)ethyl]piperazine]: the IC50 is 860 nM.

Regarding `O=[N+]([O-])c1ccc(CCN2CCN(CCc3ccc([N+](=O)[O-])cc3)C(C(F)F)C2)cc1` (centres unmarked) [Example 12, 2-(Difluoromethyl)-1,4-bis[2-(4-nitrophenyl)ethyl]piperazine], the IC50 was determined as 440 nM.

In the case of `O=[N+]([O-])c1ccc(CCN2CCN(CCc3ccc([N+](=O)[O-])cc3)C(CO)C2)cc1` (centres unmarked) [Example 13, {1,4-Bis[2-(4-nitrophenyl)ethyl]piperazin-2-yl}methanol], the IC50 was 260 nM.

For `O=[N+]([O-])c1ccc(CCN2CCN(CCc3ccc([N+](=O)[O-])cc3C(F)(F)F)CC2)cc1` [Example 15, 1-[2-(4-Nitrophenyl)ethyl]-4-{2-[4-nitro-2-(trifluoromethyl)phenyl]ethyl}piperazine], the IC50 was 440 nM.

Turning to `O=[N+]([O-])c1ccc(CCN2CC3CCC(C2)N3CCc2ccc([N+](=O)[O-])cc2)cc1` [Example 16, 3,8-Bis-[2-(4-nitrophenyl)ethyl]-3,8-diazabicyclo[3.2.1]octane], the IC50 is 190 nM.

As to `CC(Cc1ccc([N+](=O)[O-])cc1)N1CCN(C(C)Cc2ccc([N+](=O)[O-])cc2)CC1` (centres unmarked) [Example 19, 1,4-Bis[1-methyl-2-(4-nitrophenyl)ethyl]piperazine], the half-maximal inhibitory concentration (IC50) came to 330 nM.

Turning to `O=[N+]([O-])c1ccc(CCN2CC3CCC2CN3CCc2ccc([N+](=O)[O-])cc2)cc1` [Example 20, 2,5-Bis[2-(4-nitrophenyl)ethyl]-2,5-diazabicyclo[2.2.2]octane], the IC50 was determined as 210 nM.

Turning to `COC(=O)CC1CN(CCc2ccc([N+](=O)[O-])cc2)CCN1CCc1ccc([N+](=O)[O-])cc1` (centres unmarked) [Example 21, Methyl{1,4-bis[2-(4-nitrophenyl)ethyl]piperazin-2-yl}acetate], the IC50 amounted to 390 nM.

Take `COc1cc(CCN2CCN(CCc3ccc([N+](=O)[O-])cc3)CC2)ccc1C#N` [Example 22, 2-Methoxy-4-(2-{4-[2-(4-nitrophenyl)ethyl]piperazin-1-yl}ethyl)benzonitrile]: the IC50 was determined as 52 nM.

As to `Cc1cc(C#N)ccc1CCN1CCN(CCc2ccc([N+](=O)[O-])cc2)CC1` [Example 23, 3-Methyl-4-(2-{4-[2-(4-nitrophenyl)ethyl]piperazin-1-yl}ethyl)benzonitrile], the IC50 is 62 nM.

Take `Cc1cc(CCN2CCN(CCc3ccc([N+](=O)[O-])cc3)CC2)ccc1C#N` [Example 24, 2-Methyl-4-(2-{4-[2-(4-nitrophenyl)ethyl]piperazin-1-yl}ethyl)benzonitrile]: the IC50 came to 190 nM.

As to `N#Cc1ccc2c(c1)CC[C@H](N1CCN(CCc3ccc([N+](=O)[O-])cc3)CC1)C2` [Example 25, (6S)-6-{4-[2-(4-Nitrophenyl)ethyl]piperazin-1-yl}-5,6,7,8-tetrahydronaphthalene-2-carbonitrile], the IC50 was determined as 83 nM.

With `N#Cc1ccc2c(c1)CC[C@@H](N1CCN(CCc3ccc([N+](=O)[O-])cc3)CC1)C2` [Example 26, (6R)-6-{4-[2-(4-Nitrophenyl)ethyl]piperazin-1-yl}-5,6,7,8-tetrahydronaphthalene-2-carbonitrile], the IC50 came out at 66 nM.

Turning to `c1cc2nonc2cc1CCN1CCN(C2CCc3cc(-n4cnnn4)ccc3C2)CC1` (centres unmarked) [Example 27, 5-(2-{4-[6-(1H-Tetrazol-1-yl)-1,2,3,4-tetrahydronaphthalen-2-yl]piperazin-1-yl}ethyl)-2,1,3-benzoxadiazole], the IC50 amounted to 980 nM.

With `N#Cc1c(F)cc(CCN2CCN(CCc3ccc([N+](=O)[O-])cc3)CC2)cc1F` [Example 28, 2,6-Difluoro-4-(2-{4-[2-(4-nitrophenyl)ethyl]piperazin-1-yl}ethyl)benzonitrile], the IC50 came to 160 nM.

Turning to `N#Cc1ccc2c(c1)CC(N1CCN(CCc3ccc([N+](=O)[O-])cc3)CC1)C2` (centres unmarked) [Example 29, 2-{4-[2-(4-Nitrophenyl)ethyl]piperazin-1-yl}-2,3-dihydro-1H-indene-5-carbonitrile], the IC50 was 730 nM.

As to `O=[N+]([O-])c1ccc(CCN2CCN(C3Cc4ccc([N+](=O)[O-])cc4C3)CC2)cc1` (centres unmarked) [Example 30, 1-(5-Nitro-2,3-dihydro-1H-inden-2-yl)-4-[2-(4-nitrophenyl)ethyl]piperazine], the IC50 was 310 nM.

For `COc1cc(C#N)ccc1CCN1CCN(CCc2ccc([N+](=O)[O-])cc2)CC1` [Example 31, 3-Methoxy-4-(2-{4-[2-(4-nitrophenyl)ethyl]piperazin-1-yl}ethyl)benzonitrile], the IC50 amounted to 300 nM.

With `N#Cc1ccc(CCN2CCN(CCc3ccc([N+](=O)[O-])cc3)CC2)cc1F` [Example 32, 2-Fluoro-4-(2-{4-[2-(4-nitrophenyl)ethyl]piperazin-1-yl}ethyl)benzonitrile], the IC50 stood at 240 nM.

Turning to `O=C1OCc2cc(CCN3CCN(C4CCc5cc6nonc6cc5C4)CC3)ccc21` (centres unmarked) [Example 33, 5-{2-[4-(5,6,7,8-Tetrahydronaphtho[2,3-c][1,2,5]oxadiazol-6-yl)piperazin-1-yl]ethyl}-2-benzofuran-1(3H)-one], the IC50 amounted to 210 nM.

On to `N#Cc1cccc2c1CCC2CN1CCN(CCc2ccc3c(c2)COC3=O)CC1` (centres unmarked) [Example 34, 1-((4-(2-(1-Oxo-1,3-dihydroisobenzofuran-5-yl)ethyl)piperazin-1-yl)methyl)-2,3-dihydro-1H-indene-4-carbonitrile], for which the IC50 was 270 nM.

Regarding `N#Cc1ccc2c(c1)OCCC2CN1CCN(CCc2ccc3c(c2)COC3=O)CC1` (centres unmarked) [Example 36, 4-({4-[2-(1-Oxo-1,3-dihydro-2-benzofuran-5-yl)ethyl]piperazin-1-yl}methyl)-3,4-dihydro-2H-chromene-7-carbonitrile], the IC50 came out at 92 nM.

Consider `N#Cc1ccc2c(c1)CCCC2CN1CCN(CCc2ccc3c(c2)COC3=O)CC1` (centres unmarked) [Example 37, 5-({4-[2-(1-Oxo-1,3-dihydro-2-benzofuran-5-yl)ethyl]piperazin-1-yl}methyl)-5,6,7,8-tetrahydronaphalene-2-carbonitrile], for which the IC50 was determined as 460 nM.

On to `N#Cc1cc(F)c(CCN2CCN(CCc3ccc4c(c3)COC4=O)CC2)cc1F` [Example 39, 2,5-Difluoro-4-[2-[4-[2-(1-oxo-3H-isobenzofuran-5-yl)ethyl]piperazin-1-yl]ethyl]benzonitrile], for which the half-maximal inhibitory concentration (IC50) is 230 nM.

For `O=C1OCc2cc(CCN3CCN(CCc4ccc(-n5cnnn5)nc4)CC3)ccc21` [Example 42, 5-[2-[4-[2-[6-(Tetrazol-1-yl)-3-pyridyl]ethyl]piperazin-1-yl]ethyl]-3H-isobenzofuran-1-one], the 50% inhibitory concentration (IC50) was 910 nM.

Consider `Cc1c(CCN2CCN(CCc3ccc(-n4cnnn4)nc3)CC2)ccc2c1COC2=O` [Example 43, 4-Methyl-5-[2-[4-[2-[6-(tetrazol-1-yl)-3-pyridyl]ethyl]piperazin-1-yl]ethyl]-3H-isobenzofuran-1-one], for which the IC50 turned out to be 610 nM.

Consider `COc1cc(C(C)CN2CCN(CCc3ccc4c(c3)COC4=O)CC2)ccc1C#N` (centres unmarked) [Example 44, 2-Methoxy-4-[1-methyl-2-[4-[2-(1-oxo-3H-isobenzofuran-5-yl)ethyl]piperazin-1-yl]ethyl]benzonitrile], for which the IC50 was 280 nM.

Consider `COc1cc(CC(C)N2CCN(CCc3ccc4c(c3)COC4=O)CC2)ccc1C#N` (centres unmarked) [Example 48, 2-Methoxy-4-[2-[4-[2-(1-oxo-3H-isobenzofuran-5-yl)ethyl]piperazin-1-yl]propyl]benzonitrile], for which the IC50 amounted to 210 nM.

As to `Cc1c(CCN2CCN(CCc3ccc(C#N)c(OC(F)F)c3)CC2)ccc2c1COC2=O` [Example 49, 2-(Difluoromethoxy)-4-[2-[4-[2-(4-methyl-1-oxo-3H-isobenzofuran-5-yl)ethyl]piperazin-1-yl]ethyl]benzonitrile], the IC50 worked out at 160 nM.

On to `COc1cc(CCN2CCN(CCc3ccc4c(c3)COC4=O)C(C(F)(F)F)C2)ccc1C#N` (centres unmarked) [Example 51, 2-Methoxy-4-(2-{4-[2-(1-oxo-1,3-dihydro-2-benzofuran-5-yl)ethyl]-3-(trifluoromethyl)piperazin-1-yl}ethyl)benzonitrile], for which the IC50 came out at 650 nM.

On to `COc1cc(CCN2CCN(CCc3ccc4c(c3)COC4=O)CC2)c(F)cc1C#N` [Example 52, 5-Fluoro-2-methoxy-4-(2-{4-[2-(1-oxo-1,3-dihydro-2-benzofuran-5-yl)ethyl]piperazin-1-yl}ethyl)benzonitrile], for which the IC50 was found to be 68 nM.

Still in this assay, the particulars now being: Table 1; CHO-DHFR- cells stably expressing hROMK1 (Kir1.1); read-out: ^86Rb^+ Efflux Assay IC50.
On to `CC1(C)CN(CCc2ccc([N+](=O)[O-])cc2)CCN1CCc1ccc([N+](=O)[O-])cc1` [Example 9, 2,2-Dimethyl-1,4-bis[2-(4-nitrophenyl)ethyl]piperazine], for which the IC50 was determined as 210 nM.

As to `O=[N+]([O-])c1ccc(CCN2C[C@@H]3C[C@H]2CN3CCc2ccc([N+](=O)[O-])cc2)cc1` [Example 10, (1S,4S)-2,5-Bis[2-(4-nitrophenyl)ethyl]-2,5-diazabicyclo[2.2.1]heptane], the IC50 is 110 nM.

Turning to `N#Cc1ccc2c(c1)CC[C@@H](N1CCN(CCc3ccc([N+](=O)[O-])cc3)CC1)C2` [Example 26, (6R)-6-{4-[2-(4-Nitrophenyl)ethyl]piperazin-1-yl}-5,6,7,8-tetrahydronaphthalene-2-carbonitrile], the IC50 stood at 66 nM.

On to `Cc1c(CCN2CCN(CCc3ccc(-n4cnnn4)nc3)CC2)ccc2c1COC2=O` [Example 43, 4-Methyl-5-[2-[4-[2-[6-(tetrazol-1-yl)-3-pyridyl]ethyl]piperazin-1-yl]ethyl]-3H-isobenzofuran-1-one], for which the IC50 was determined as 620 nM.

The IC50 is the concentration that gives 50% inhibition.
